In publication PMC9488889, “Insight into mode-of-action and structural determinants of the compstatin family of clinical complement inhibitors” (Nature Communications, 2022):
Where two headings read alike, the source gives them in different places. Bridge positions count the residues as written; N and C are the ends. Square brackets hold non-standard residues; d marks the D form. Peptide text beside a SMILES is read from it. Trp(1-Me) = Cn1cc(C[C@H](N)C(=O)O)c2ccccc21; NMeI = CC[C@H](C)[C@H](NC)C(=O)O; Sar = CNCC(=O)O

Molecular target: T1, C3b (Homo sapiens, UniProt P01024)
T1 construct: the α’NT, MG6^α−8, anchor, and C-terminal complement (CTC) domains of the α-chain that are all shared between C3c and C3b; purchased Complement Technology (Tyler, TX, USA)
T1 sequence (P01024 23-667 limits assumed): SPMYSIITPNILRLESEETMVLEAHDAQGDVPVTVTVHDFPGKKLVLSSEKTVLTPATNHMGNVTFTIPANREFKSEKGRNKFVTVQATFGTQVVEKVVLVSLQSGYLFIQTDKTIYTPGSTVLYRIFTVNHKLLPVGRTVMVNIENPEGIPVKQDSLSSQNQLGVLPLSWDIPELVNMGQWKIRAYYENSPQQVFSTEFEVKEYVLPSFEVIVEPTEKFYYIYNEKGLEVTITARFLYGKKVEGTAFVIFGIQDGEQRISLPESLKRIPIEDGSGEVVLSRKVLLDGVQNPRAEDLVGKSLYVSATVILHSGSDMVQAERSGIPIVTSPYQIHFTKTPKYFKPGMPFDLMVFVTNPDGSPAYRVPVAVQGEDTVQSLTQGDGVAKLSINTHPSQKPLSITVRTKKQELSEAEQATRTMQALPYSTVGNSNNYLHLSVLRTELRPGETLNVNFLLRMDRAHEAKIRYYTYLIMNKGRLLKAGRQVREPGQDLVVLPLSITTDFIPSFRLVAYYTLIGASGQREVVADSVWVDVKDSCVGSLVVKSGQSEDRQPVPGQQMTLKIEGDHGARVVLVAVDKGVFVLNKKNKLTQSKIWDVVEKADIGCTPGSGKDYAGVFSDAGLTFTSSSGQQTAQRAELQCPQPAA
T1 sequence (P01024 749-1663 limits assumed): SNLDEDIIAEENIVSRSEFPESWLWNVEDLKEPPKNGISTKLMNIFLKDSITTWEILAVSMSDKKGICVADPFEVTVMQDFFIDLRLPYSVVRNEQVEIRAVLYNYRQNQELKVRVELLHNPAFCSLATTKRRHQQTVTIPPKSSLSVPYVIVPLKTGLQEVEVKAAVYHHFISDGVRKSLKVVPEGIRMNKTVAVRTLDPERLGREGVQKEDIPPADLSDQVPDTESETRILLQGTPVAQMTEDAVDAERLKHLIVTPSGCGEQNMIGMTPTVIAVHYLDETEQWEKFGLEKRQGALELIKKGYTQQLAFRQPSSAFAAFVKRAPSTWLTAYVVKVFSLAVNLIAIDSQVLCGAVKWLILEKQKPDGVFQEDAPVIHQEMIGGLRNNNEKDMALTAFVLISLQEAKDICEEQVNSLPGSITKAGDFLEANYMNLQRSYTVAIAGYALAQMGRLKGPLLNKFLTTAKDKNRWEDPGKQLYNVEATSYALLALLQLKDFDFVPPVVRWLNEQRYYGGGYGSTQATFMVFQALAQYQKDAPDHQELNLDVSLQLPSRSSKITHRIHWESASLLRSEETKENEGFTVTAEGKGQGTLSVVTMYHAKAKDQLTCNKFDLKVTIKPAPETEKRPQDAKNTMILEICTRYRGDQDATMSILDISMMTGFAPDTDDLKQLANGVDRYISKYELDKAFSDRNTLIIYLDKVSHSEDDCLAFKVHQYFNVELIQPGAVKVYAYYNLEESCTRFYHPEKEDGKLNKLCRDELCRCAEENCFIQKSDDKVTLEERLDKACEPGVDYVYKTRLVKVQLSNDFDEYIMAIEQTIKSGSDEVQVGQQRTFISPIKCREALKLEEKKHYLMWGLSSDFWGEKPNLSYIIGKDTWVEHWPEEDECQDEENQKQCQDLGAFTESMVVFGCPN
Assay: SPR kinetic binding studies on immobilized C3b
Conditions: for kd: Suppl. Fig. 7e, Cp40 analogs at position 5, three SPR experiments
Experimental: All compstatin analogues were characterized concerning affinity and kinetic profiles by surface plasmon resonance (SPR) using a Biacore T200 instrument (Cytiva, Piscataway, USA). Experiments were run at 25 °C in HBST buffer (10 mM HEPES, 150 mM NaCl, 0.05% Tween-20, pH 7.4). C3b was immobilized on a carboxymethyl dextran hydrogel chip (CMD200; XanTec, Düsseldorf, Germany) using standard amine coupling in sodium acetate buffer pH 4.5 at a flow rate of 10 µl/min. Immobilization densities of 8000 and 4000 resonance units (RU) were achieved on separate flow cells. A reference flow cell was activated with the same method (NHS/EDC). All active sites were inactivated and blocked with ethanolamine. A single cycle approach at a flow rate of 30 µl/min was used for kinetic analysis by injecting five increasing concentrations of each compound (0.5–40 nM) consecutively without regeneration in-between injections. Individual injections within a cycle were 120 s long with a 60 sec dissociation phase between injections. After the highest concentration of each derivative, a dissociation period of 6,000–14,400 sec was added to ensure complete dissociation in absence of suitable regeneration method. […] Signals from the reference cell from an ensemble of buffer blank injections were subtracted to correct for buffer effects and injection artefacts. Kinetic data was processed with the Biacore T200 Software (version 3.1; Cytiva) using a single-cycle evaluation setup by global fitting each data set to a 1:1 Langmuir binding model. Association and dissociation rate constants (ka and kd, respectively) were fitted, and the equilibration constant KD was calculated based on the following equation: KD = kd/ka. Each assay was performed at least twice and in duplicate injections.

[1] = Table 1, amine-reactive immobilized C3b, 25 °C, average±SD of three independent SPR experiments, read-out: KD
[2] = pH 7.4, read-out: ka, Dataset 1
[3] = pH 7.4, read-out: ka, Dataset 2
[4] = pH 7.4, read-out: ka, Dataset 3
[5] = source data of Table 1, single SPR dataset 1, read-out: KD, Dataset 1
[6] = source data of Table 1, single SPR dataset 2, read-out: KD, Dataset 2
[7] = source data of Table 1, single SPR dataset 3, read-out: KD, Dataset 3

SMILES | kd | kon (pH 7.4, read-out: ka) [M⁻¹ s⁻¹] | Kd [1] [nM] | kon [2] [M⁻¹ s⁻¹] | kon [3] [M⁻¹ s⁻¹] | kon [4] [M⁻¹ s⁻¹] | Kd [5] [nM] | Kd [6] [nM] | Kd [7] [nM]
CCCCn1cc(C[C@@H]2NC(=O)[C@H](C(C)C)NC(=O)[C@@H](NC(=O)[C@@H](NC(=O)[C@H](N)Cc3ccc(O)cc3)[C@@H](C)CC)CSSC[C@@H](C(=O)N(C)[C@H](C(N)=O)[C@@H](C)CC)NC(=O)[C@H](CCCNC(=N)N)NC(=O)[C@H](Cc3c[nH]cn3)NC(=O)[C@H](C)NC(=O)CN(C)C(=O)[C@H](Cc3c[nH]c4ccccc34)NC(=O)[C@H](CC(=O)O)NC(=O)[C@H](CCC(N)=O)NC2=O)c2ccccc21 [1BuW] | 0.5 ± 0.2 10-3 s-1 | 200000 |  |  |  |  |  |  | 
CC[C@H](C)[C@H](NC(C)=O)C(=O)N[C@H]1CSSC[C@@H](C(=O)N(C)[C@H](C(N)=O)[C@@H](C)CC)NC(=O)[C@H](CCCNC(=N)N)NC(=O)[C@H](Cc2c[nH]cn2)NC(=O)[C@H](C)NC(=O)CN(C)C(=O)[C@H](Cc2c[nH]c3ccccc23)NC(=O)[C@H](CC(=O)O)NC(=O)[C@H](CCC(N)=O)NC(=O)[C@H](Cc2cn(C)c3ccccc23)NC(=O)[C@H](C(C)C)NC1=O [Cp20, reference compound] |  | 1.3e+06 ± 300000 | 3.4 ± 0.6 | 1.63e+06 | 1.23e+06 | 960000 | 3.78 | 2.6 | 3.76
CC[C@H](C)[C@H](NC(=O)[C@H](N)Cc1ccc(O)cc1)C(=O)N[C@H]1CSSC[C@@H](C(=O)N(C)[C@H](C(N)=O)[C@@H](C)CC)NC(=O)[C@H](CCCNC(=N)N)NC(=O)[C@H](Cc2c[nH]cn2)NC(=O)[C@H](C)NC(=O)CN(C)C(=O)[C@H](Cc2c[nH]c3ccccc23)NC(=O)[C@H](CCC(=O)O)NC(=O)[C@H](CCC(N)=O)NC(=O)[C@H](Cc2cn(C)c3ccccc23)NC(=O)[C@H](C(C)C)NC1=O [Cp40 D7E] (H-[dY]ICV[Trp(1-Me)]QEW[Sar]AHRC[NMeI]-NH2; disulfide 3-13) |  | 900000 ± 200000 |  | 1.17e+06 | 650000 | 730000 |  |  | 
CC[C@H](C)[C@H](NC(=O)[C@H](N)Cc1ccc(O)cc1)C(=O)N[C@H]1CSSC[C@@H](C(=O)N(C)[C@H](C(N)=O)[C@@H](C)CC)NC(=O)[C@H](CO)NC(=O)[C@H](Cc2c[nH]cn2)NC(=O)[C@H](C)NC(=O)CN(C)C(=O)[C@H](Cc2c[nH]c3ccccc23)NC(=O)[C@H](CO)NC(=O)[C@H](CCC(N)=O)NC(=O)[C@H](Cc2cn(C)c3ccccc23)NC(=O)[C@H](C(C)C)NC1=O [Cp40 D7S/R12S] (H-[dY]ICV[Trp(1-Me)]QSW[Sar]AHSC[NMeI]-NH2; disulfide 3-13) |  | 100000 | 59.1 ± 41.3 | 20000 | 120000 | 220000 | 117 | 34.7 | 25.5
CC[C@H](C)[C@H](NC(=O)[C@H](N)Cc1ccc(O)cc1)C(=O)N[C@H]1CSSC[C@@H](C(=O)N(C)[C@H](C(N)=O)[C@@H](C)CC)NC(=O)[C@H](CCCNC(=N)N)NC(=O)[C@H](Cc2c[nH]cn2)NC(=O)[C@H](C)NC(=O)CN(C)C(=O)[C@H](Cc2c[nH]c3ccccc23)NC(=O)[C@H](CO)NC(=O)[C@H](CCC(N)=O)NC(=O)[C@H](Cc2cn(C)c3ccccc23)NC(=O)[C@H](C(C)C)NC1=O [Cp40 D7S] (H-[dY]ICV[Trp(1-Me)]QSW[Sar]AHRC[NMeI]-NH2; disulfide 3-13) |  | 100000 | 5.6 ± 1.3 | 80000 | 50000 | 170000 | 4.85 | 7.48 | 4.45
CC[C@H](C)[C@H](NC(=O)[C@H](N)Cc1ccc(O)cc1)C(=O)N[C@H]1CSSC[C@@H](C(=O)N(C)[C@H](C(N)=O)[C@@H](C)CC)NC(=O)[C@H](CCCCN)NC(=O)[C@H](Cc2c[nH]cn2)NC(=O)[C@H](C)NC(=O)CN(C)C(=O)[C@H](Cc2c[nH]c3ccccc23)NC(=O)[C@H](CC(=O)O)NC(=O)[C@H](CCC(N)=O)NC(=O)[C@H](Cc2cn(C)c3ccccc23)NC(=O)[C@H](C(C)C)NC1=O [Cp40 R12K] (H-[dY]ICV[Trp(1-Me)]QDW[Sar]AHKC[NMeI]-NH2; disulfide 3-13) |  |  |  | 630000 | 470000 | 780000 |  |  | 
CC[C@H](C)[C@H](NC(=O)[C@H](N)Cc1ccc(O)cc1)C(=O)N[C@H]1CSSC[C@@H](C(=O)N(C)[C@H](C(N)=O)[C@@H](C)CC)NC(=O)[C@H](CO)NC(=O)[C@H](Cc2c[nH]cn2)NC(=O)[C@H](C)NC(=O)CN(C)C(=O)[C@H](Cc2c[nH]c3ccccc23)NC(=O)[C@H](CC(=O)O)NC(=O)[C@H](CCC(N)=O)NC(=O)[C@H](Cc2cn(C)c3ccccc23)NC(=O)[C@H](C(C)C)NC1=O [Cp40 R12S] (H-[dY]ICV[Trp(1-Me)]QDW[Sar]AHSC[NMeI]-NH2; disulfide 3-13) |  | 200000 | 9.9 ± 0.5 | 140000 | 180000 | 220000 | 10.2 | 10.3 | 9.22
CC[C@H](C)[C@H](NC(=O)[C@H](N)Cc1ccc(O)cc1)C(=O)N[C@H]1CSSC[C@@H](C(=O)N[C@@H](C)C(N)=O)NC(=O)[C@H](CCCNC(=N)N)NC(=O)[C@H](Cc2c[nH]cn2)NC(=O)[C@H](C)NC(=O)CN(C)C(=O)[C@H](Cc2c[nH]c3ccccc23)NC(=O)[C@H](CC(=O)O)NC(=O)[C@H](CCC(N)=O)NC(=O)[C@H](Cc2cn(C)c3ccccc23)NC(=O)[C@H](C(C)C)NC1=O [Cp40 mI14A] (H-[dY]ICV[Trp(1-Me)]QDW[Sar]AHRCA-NH2; disulfide 3-13) |  | 3e+06 ± 1.6e+06 |  | 4.23e+06 | 1.11e+06 | 3.53e+06 |  |  | 

Results, then the molecule that gave them:

kd | kon (pH 7.4, read-out: ka) [M⁻¹ s⁻¹] | Kd [1] [nM] | kon [2] [M⁻¹ s⁻¹] | kon [3] [M⁻¹ s⁻¹] | kon [4] [M⁻¹ s⁻¹] | Kd [5] [nM] | Kd [6] [nM] | Kd [7] [nM] | SMILES
0.7 ± 0.0 10-3 s-1 | 200000 |  |  |  |  |  |  |  | CC[C@H](C)[C@H](NC(=O)[C@H](N)Cc1ccc(O)cc1)C(=O)N[C@H]1CSSC[C@@H](C(=O)N(C)[C@H](C(N)=O)[C@@H](C)CC)NC(=O)[C@H](CCCNC(=N)N)NC(=O)[C@H](Cc2c[nH]cn2)NC(=O)[C@H](C)NC(=O)CN(C)C(=O)[C@H](Cc2c[nH]c3ccccc23)NC(=O)[C@H](CC(=O)O)NC(=O)[C@H](CCC(N)=O)NC(=O)[C@H](Cc2cn(CCC(C)C)c3ccccc23)NC(=O)[C@H](C(C)C)NC1=O [1(3Me)BuW]
1.2 ± 0.3 10-3 s-1 | 700000 ± 300000 |  |  |  |  |  |  |  | CC[C@H](C)[C@H](NC(=O)[C@H](N)Cc1ccc(O)cc1)C(=O)N[C@H]1CSSC[C@@H](C(=O)N(C)[C@H](C(N)=O)[C@@H](C)CC)NC(=O)[C@H](CCCNC(=N)N)NC(=O)[C@H](Cc2c[nH]cn2)NC(=O)[C@H](C)NC(=O)CN(C)C(=O)[C@H](Cc2c[nH]c3ccccc23)NC(=O)[C@H](CC(=O)O)NC(=O)[C@H](CCC(N)=O)NC(=O)[C@H](Cc2cn(CC)c3ccccc23)NC(=O)[C@H](C(C)C)NC1=O [1EtW]
 | 200000 |  | 130000 | 150000 | 180000 |  |  |  | CC[C@H](C)[C@H](NC(=O)[C@H](N)Cc1ccc(O)cc1)C(=O)N[C@H]1CSSC[C@@H](C(=O)N(C)[C@H](C(N)=O)[C@@H](C)CC)NC(=O)[C@H](CCCNC(=N)N)NC(=O)[C@H](Cc2c[nH]cn2)NC(=O)[C@H](C)NC(=O)CN(C)C(=O)[C@H](Cc2c[nH]c3ccccc23)NC(=O)[C@H](CC(=O)O)NC(=O)[C@H](CCC(N)=O)NC(=O)[C@H](Cc2c[nH]c3ccccc23)NC(=O)[C@H](C(C)C)NC1=O [Cp40 (1MeW)5 W]
 | 600000 ± 100000 |  | 320000 | 670000 | 790000 |  |  |  | CC[C@H](C)[C@H](NC(=O)[C@H](N)Cc1ccc(O)cc1)C(=O)N[C@H]1CSSC[C@@H](C(=O)N(C)[C@H](C(N)=O)[C@@H](C)CC)NC(=O)[C@H](CCCNC(N)=O)NC(=O)[C@H](Cc2c[nH]cn2)NC(=O)[C@H](C)NC(=O)CN(C)C(=O)[C@H](Cc2c[nH]c3ccccc23)NC(=O)[C@H](CC(=O)O)NC(=O)[C@H](CCC(N)=O)NC(=O)[C@H](Cc2cn(C)c3ccccc23)NC(=O)[C@H](C(C)C)NC1=O [Cp40 R12Cit]
 | 900000 ± 400000 | 1.7 ± 0.7 | 1.29e+06 | 1.1e+06 | 360000 | 0.92 | 1.39 | 2.63 | CC[C@H](C)[C@H](NC(=O)[C@H](N)Cc1ccc(O)cc1)C(=O)N[C@H]1CSSC[C@@H](C(=O)N(C)[C@H](C(N)=O)[C@@H](C)CC)NC(=O)[C@H](CCCNC(=N)N)NC(=O)[C@H](Cc2c[nH]cn2)NC(=O)[C@H](C)NC(=O)CNC(=O)[C@H](Cc2c[nH]c3ccccc23)NC(=O)[C@H](CC(=O)O)NC(=O)[C@H](CCC(N)=O)NC(=O)[C@H](Cc2cn(C)c3ccccc23)NC(=O)[C@H](C(C)C)NC1=O [Cp40 Sar9G]
